The values that follow come from ChEMBL document CHEMBL1145365, “The discovery of long acting beta2-adrenoreceptor agonists” (Bioorg Med Chem Lett, 2007).

By logD is commonly meant lipophilicity at a set pH, counting ionised and neutral species. The low end stands for lower lipophilicity, the high end for higher lipophilicity. The term EC50 denotes the concentration at which the effect is half-maximal. In general, half-life refers to how long it takes for the measured level to halve. A low value points to rapid decline. By Papp A→B is commonly meant the apparent permeability from the apical to the basolateral side of a cell layer. Lower therefore signals slow passage. In general, clearance refers to the volume of plasma or blood freed of the substance per unit of time.

Series [1] is described as follows: Distribution coefficient, log D of the compound. To be noted: octanol/water.
Series [2] has as its target Beta-2 adrenergic receptor (Homo sapiens, UniProt P07550).
Description: Agonist activity at human recombinant beta-2 adrenoceptor expressed in CHO cells assessed as elevation of cAMP
Series [3] can be described thus: Half life in human liver microsome at 1 uM.
Series [4] deals with Beta-2 adrenergic receptor (Cavia porcellus) (UniProt Q8K4Z4). The experiment in a line: Agonist potency at beta-2 adrenoceptor in guinea pig trachea model relative to salmeterol. Format: functional, tissue-based.
The target is the same in series [5]. The series is described as follows: Effect on guinea pig trachea model assessed as duration of muscle tone. Format: functional, tissue-based. To be noted: Muscle tissue.
Series [6] can be described thus: Half life in iv dosed rat. Format: ADME, organism-based. To be noted: in vivo.
A short description of the next series: in vitro. To be noted: human, Caco-2, pH 7.4.
The nature of series [7]: Clearance in iv dosed rat. Format: ADME, organism-based. Conditions: in vivo.
Series [8] in a line: Volume of distribution in iv dosed rat. Format: ADME, organism-based. Conditions: in vivo, read-out: Vdss.

The structures appear in SMILES notation.

Chain of Beta-2 adrenergic receptor (P07550 whole entry): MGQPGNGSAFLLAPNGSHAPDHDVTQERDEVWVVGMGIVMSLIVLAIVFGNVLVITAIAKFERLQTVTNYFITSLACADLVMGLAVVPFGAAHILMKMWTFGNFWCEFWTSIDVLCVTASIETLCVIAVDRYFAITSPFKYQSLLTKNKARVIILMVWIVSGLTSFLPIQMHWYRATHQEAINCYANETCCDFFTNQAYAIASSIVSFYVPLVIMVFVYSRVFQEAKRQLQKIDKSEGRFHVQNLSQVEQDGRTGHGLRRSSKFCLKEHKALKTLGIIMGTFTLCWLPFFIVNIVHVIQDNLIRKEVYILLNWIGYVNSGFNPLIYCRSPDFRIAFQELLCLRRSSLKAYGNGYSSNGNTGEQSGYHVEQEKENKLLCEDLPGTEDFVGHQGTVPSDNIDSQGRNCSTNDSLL
Chain of Beta-2 adrenergic receptor (Cavia porcellus) (Q8K4Z4 whole entry, looked up): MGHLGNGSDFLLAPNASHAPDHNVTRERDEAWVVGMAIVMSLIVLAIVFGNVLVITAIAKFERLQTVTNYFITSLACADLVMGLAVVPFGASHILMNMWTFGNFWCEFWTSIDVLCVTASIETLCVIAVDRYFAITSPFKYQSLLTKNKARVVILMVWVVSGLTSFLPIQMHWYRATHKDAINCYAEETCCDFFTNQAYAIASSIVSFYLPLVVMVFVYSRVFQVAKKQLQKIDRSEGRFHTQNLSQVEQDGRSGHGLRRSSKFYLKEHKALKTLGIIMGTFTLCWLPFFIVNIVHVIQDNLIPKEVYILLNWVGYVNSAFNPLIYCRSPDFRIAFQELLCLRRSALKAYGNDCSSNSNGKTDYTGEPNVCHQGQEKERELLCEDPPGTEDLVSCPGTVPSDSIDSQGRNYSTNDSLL
Description for in vitro: Permeability from apical to basolateral side of the Caco-2 cell membrane at 25 uM in pH 7.4

For the molecule `C[C@H](Cc1cccc(CC(=O)NCc2ccccc2)c1)NC[C@H](O)c1ccc(O)c(CO)c1`, the logD in [1] is 0.8. Also, the EC50 in series [2] came out at 0.096 nM.

As for `C[C@H](Cc1cccc(CC(=O)NCc2cc(C(F)(F)F)ccc2F)c1)NC[C@H](O)c1ccc(O)c(CO)c1`, the half-life at 1 µM in [3] (microsomes) amounted to 9 min. For the same molecule, in series [4], the Activity was 0.9. Besides, in series [5], the TIME was 6.6 h.

In turn, `C[C@H](Cc1cccc(CC(=O)NCc2c(F)cccc2Cl)c1)NC[C@H](O)c1ccc(O)c(CO)c1` returned an Activity in [4] of 0.07. The TIME in series [5] turned out to be 5.2 h.

`CC(C)(Cc1cccc(CC(=O)NCc2ccccc2)c1)NC[C@H](O)c1ccc(O)c(CO)c1` registered a logD in series [1] of 1. Moreover, in series [2], the midpoint of the response, the EC50, lay at 0.02 nM.

Take `O=C(Cc1cccc(CCNC[C@H](O)c2ccc(O)c(CO)c2)c1)NCc1ccccc1`: in series [1], the logD turned out to be 0.4. Further, the EC50 in [2] came out at 0.096 nM.

As to `C[C@H](Cc1cccc(CC(=O)NCc2ccc(OC(F)(F)F)cc2)c1)NC[C@H](O)c1ccc(O)c(CO)c1`, in [3] (liver microsomes), the half-life at 1 µM turned out to be 15 min. This molecule also registered a logD in [1] of 2.4. This molecule returned an Activity in [4] of 1. Besides, in [5], the TIME was 8.1 h.

Consider `C[C@H](Cc1cccc(CC(=O)NCc2ccc(Cl)c(Cl)c2)c1)NC[C@H](O)c1ccc(O)c(CO)c1`, for which, in series [6], the half-life was 90 min. The molecule also showed a half-life at 1 µM in series [3] (liver microsomes) of 4 min. The molecule also showed a logD in series [1] of 2.6. Besides, the Papp A→B at 25 µM in “in vitro” was 1 ×10⁻⁶ cm/s. The molecule further yielded a clearance in series [7] of 123 mL/min/kg. Further, in series [4], the Activity was determined as 0.4. The Vd in series [8] was 16.6 L/kg. In series [5], the TIME was determined as 9 h.

For the molecule `C[C@H](Cc1cccc(CC(=O)NCc2cccc3ccccc23)c1)NC[C@H](O)c1ccc(O)c(CO)c1`, in series [3] (liver microsomes), the half-life at 1 µM was found to be 2 min. In series [1], this molecule displayed a logD of 1.5. The molecule further gave an Activity in [4] of 1. In addition, in series [5], the TIME stood at 3.9 h.

In [1], `C[C@H](Cc1cccc(CC(=O)NC2Cc3ccccc3C2)c1)NC[C@H](O)c1ccc(O)c(CO)c1` yielded a logD of 1.6. This molecule also returned a Papp A→B at 25 µM in the series “in vitro” of 1 ×10⁻⁶ cm/s. For the same molecule, in [4], the Activity is 0.1. The TIME in series [5] is 5.4 h.

Molecule `C[C@H](Cc1cccc(CC(=O)NCc2cc(Cl)cc(Cl)c2)c1)NC[C@H](O)c1ccc(O)c(CO)c1` came in with a logD in series [1] of 2.3. In the series “in vitro”, the Papp A→B at 25 µM was 1 ×10⁻⁶ cm/s. Further, the Activity in series [4] worked out at 0.5. The TIME in series [5] was 7.2 h.

Take `COc1cccc(OC)c1CNC(=O)Cc1cccc(C[C@@H](C)NC[C@H](O)c2ccc(O)c(CO)c2)c1`: in series [1], the logD is 0.8. This molecule also had an Activity in series [4] of 0.3. Further, the TIME in series [5] stood at 1.5 h.

`OCc1cc([C@@H](O)CNCCCCCCOCCCCc2ccccc2)ccc1O` [SALMETEROL] had a logD in series [1] of 2.5. In series [4], this molecule registered an Activity of 1. The Vd in series [8] was 16.6 L/kg.

For the molecule `Cc1ccc(CNC(=O)Cc2cccc(C[C@@H](C)NC[C@H](O)c3ccc(O)c(CO)c3)c2)cc1C`, the half-life at 1 µM in [3] (liver microsomes) turned out to be 10 min. The logD in [1] was determined as 2.2. In series [4], this molecule came in with an Activity of 0.5. Further, the TIME in [5] is 4.6 h.
